Source: PubChem BioAssay (NCI)
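Each compound was tested at five concentrations against cells in 96-well plates for 48 hours. GI50 is the concentration that inhibits growth by half. TGI is the concentration that stops growth completely.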

Tests used:
Test in all cases: growth of human tumour cells (NCI), 48 h
T-47D breast = system: T-47D breast
MCF7 breast = system: MCF7 breast
CCRF-CEM leukemia = system: CCRF-CEM leukemia
IGROV1 ovarian = system: IGROV1 ovarian
M14 melanoma = system: M14 melanoma
786-0 renal = system: 786-0 renal
MDA-N = system: MDA-N
TK-10 renal = system: TK-10 renal
HS 578T breast = system: HS 578T breast
CAKI-1 renal = system: CAKI-1 renal
A498 renal = system: A498 renal

| SMILES | TGI (T-47D breast) [µM] | TGI (MCF7 breast) [µM] | TGI (CCRF-CEM leukemia) [µM] | TGI (IGROV1 ovarian) [µM] | TGI (M14 melanoma) [µM] | TGI (786-0 renal) [µM] | TGI (MDA-N) [µM] | TGI (TK-10 renal) [µM] | TGI (HS 578T breast) [µM] | TGI (CAKI-1 renal) [µM] | TGI (A498 renal) [µM] | GI50 (CCRF-CEM leukemia) [µM] | GI50 (IGROV1 ovarian) [µM] | GI50 (CAKI-1 renal) [µM] | GI50 (A498 renal) [µM] |
| --- | --- | --- | --- | --- | --- | --- | --- | --- | --- | --- | --- | --- | --- | --- | --- |
| CN(NC(=O)c1ccco1)C1=NCCCCN1 | > 100 | > 100 | > 100 | > 100 | > 100 | > 100 | > 100 | > 100 | > 100 | – | – | – | – | – | – |
| COc1ccc(-c2nc3ncccn3c2-c2ccc(S(C)=O)cc2)cc1 (stereo not given) | – | > 100 | > 100 | > 100 | > 100 | > 100 | > 100 | – | > 100 | 65.4 | – | – | – | – | – |
| O=C(CCN1CCCCC1CCO)Nc1ccc2c(c1)C(=O)c1ccc(NC(=O)CCN3CCCCC3CCO)cc1C2=O (stereo not given) | – | – | > 100 | 18.9 | – | 5.54 | – | 14.6 | – | 57.5 | 8.45 | – | – | – | – |
| Cc1ccc(-c2cc(-c3ccco3)nc(N)n2)o1 | – | – | > 100 | > 100 | > 100 | > 100 | – | > 100 | – | – | – | – | – | – | – |
| COC(=O)c1ccc(CN2CCc3c([nH]c4ccccc34)C2CO)o1 (stereo not given) | > 10 | > 10 | > 10 | > 10 | > 10 | > 10 | > 10 | > 10 | – | > 10 | – | – | – | – | – |
| CC12CC3c4ccccc4CN1C3(c1ccccc1)OC2=O (stereo not given) | > 100 | – | > 100 | > 100 | > 100 | > 100 | – | > 100 | > 100 | > 100 | > 100 | – | – | – | – |
| N#CI1OC(=O)c2ccccc21 | > 100 | > 100 | > 100 | > 100 | > 100 | > 100 | – | > 100 | – | > 100 | > 100 | – | – | – | – |
| COC(=O)[C@]1(C)CCCn2c(=O)n(-c3ccccc3)c(=O)n21 | > 100 | > 100 | > 100 | > 100 | > 100 | > 100 | – | > 100 | > 100 | > 100 | > 100 | – | – | – | – |
| CCOC(=O)c1ccc(NC2Oc3cc4c(cc3C(c3cc(OC)c(OC)c(OC)c3)C2C)OCO4)cc1 (stereo not given) | > 100 | > 48.5 | > 20.3 | > 51 | > 50.9 | 46.6 | – | 99.5 | – | 0.786 | > 100 | – | – | – | – |
| C=CCN1C(=O)CS/C1=N\NC(=O)c1c(C)nc2sccn12 | – | – | > 100 | > 100 | – | > 100 | – | > 100 | – | > 100 | – | – | – | – | – |
| COc1ccc(-n2sc3ncc(-c4ccccc4)cc3c2=O)cc1 | > 100 | > 100 | > 100 | 78.8 | > 100 | 39.3 | – | > 100 | – | 67.3 | > 100 | – | – | – | – |
| CN1CC(c2ccccc2)=Cc2c1ccc(N)c2N=N | > 100 | > 100 | > 100 | > 100 | > 100 | > 100 | > 100 | > 100 | > 100 | 67.9 | – | – | – | – | – |
| O=C(NCCNCCO)N/N=C/c1cccc([N+](=O)[O-])c1 | – | – | > 100 | > 100 | > 100 | > 100 | – | > 100 | – | > 100 | > 100 | – | – | – | – |
| NCCC1(N)CCNCC1 | > 100 | – | > 100 | > 100 | > 100 | > 100 | > 100 | > 100 | > 100 | > 100 | > 100 | – | – | – | – |
| COc1c2nc(CCl)n(C)c(=O)c2c(OC)c2c(=O)n(C)c(CCl)nc12 | – | 2.36 | 2.09 | 4.56 | – | 3.29 | 3.31 | 1.76 | 95 | 2.94 | 5.94 | – | – | – | – |
| COc1ccc(C[C@@H]2CN(C(=O)c3ccccc3)[C@H](Cc3ccc(O)cc3)CN2C(=O)c2ccccc2)cc1Br | > 100 | > 100 | > 100 | > 100 | > 100 | > 100 | – | > 100 | > 100 | > 100 | > 100 | – | – | – | – |
| N#Cc1[nH]c(=O)n(-c2ccc([N+](=O)[O-])cc2)c1N | > 10 | – | > 10 | > 10 | > 10 | > 10 | > 10 | > 10 | > 10 | – | > 10 | – | – | – | – |
| C=C1CC2CC[C@@]34C[C@@H]5O[C@@H]6C(O[C@H]7CC[C@H](CC(=O)OC8[C@@H](C)C9OC%10C[C@]%11(C[C@@H]%12O[C@@]%13(C[C@@H](C)[C@@H]%12O%11)C[C@H](C)[C@@H]%11OC%12CC(C(O)CO)OC%12C[C@@H]%11O%13)OC%10CC9O[C@H]8C[C@H]8O[C@@H](CC[C@@H]1O2)C[C@@H](C)C8=C)O[C@@H]7[C@@H]6O3)C5O4 (stereo not given in full) | – | > 1.48 | – | > 1.48 | 0.00675 | – | – | – | – | > 1.48 | 0.0167 | < 0.000148 | < 0.000148 | < 0.000148 | < 0.000148 |
| N/C(CC/C(N)=N\O)=N\O | > 100 | – | – | > 100 | > 100 | > 100 | > 100 | > 100 | > 100 | > 100 | > 100 | – | – | – | – |
| Oc1ccc(-c2cc(-c3c(O)cc(O)cc3O)on2)cc1 | > 100 | > 100 | > 100 | > 100 | > 100 | > 100 | > 100 | > 100 | > 100 | > 100 | – | – | – | – | – |
| O=S(=O)(O)c1cc(Cl)c(O)c2ncc(Cl)cc12 | > 100 | > 100 | > 100 | > 100 | > 100 | > 100 | > 100 | – | – | > 100 | > 100 | – | – | – | – |
| CCOn1cc(C[C@@]2(O)C(=O)OC3[C@@H](O)CO[C@@]32O)c2ccccc21 (stereo not given in full) | > 100 | > 100 | > 100 | > 100 | > 100 | > 100 | – | > 100 | > 100 | > 100 | 4.09 | – | – | – | – |
| Nc1c(Br)cc(-c2cc(Br)c(N)c(Br)c2)cc1Br | > 100 | > 100 | > 100 | > 100 | > 100 | > 100 | > 100 | > 100 | > 100 | > 100 | – | – | – | – | – |
